Experimental data from patent publication US7173004B2, “Macrocyclic isoquinoline peptide inhibitors of hepatitis C virus” (Bristol-Myers Squibb Company, priority 2003, dated 2007).

Columns and labels:
[1] = molecular target: T1, human neutrophil elastase (HNE) (Homo sapiens, UniProt P08246); test: Specificity assay, human neutrophil elastase; assay type: biochemical; conditions: read-out: HNE activity in the specificity assays (IC50)
T1 construct: purchased Sigma
T1 sequence (P08246 30-267): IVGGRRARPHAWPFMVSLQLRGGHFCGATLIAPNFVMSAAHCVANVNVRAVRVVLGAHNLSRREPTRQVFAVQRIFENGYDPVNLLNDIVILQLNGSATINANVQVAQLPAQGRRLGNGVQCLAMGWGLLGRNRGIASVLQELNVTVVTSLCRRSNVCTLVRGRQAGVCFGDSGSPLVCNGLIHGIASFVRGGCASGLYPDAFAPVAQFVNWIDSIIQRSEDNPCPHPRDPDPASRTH
Procedure: (§1) The specificities of compounds of the present invention were determined against a variety of serine proteases: human neutrophil elastase (HNE), porcine pancreatic elastase (PPE) and human pancreatic chymotrypsin and one cysteine protease: human liver cathepsin B. In all cases a 96-well plate format protocol using calorimetric p-nitroaniline (pNA) substrate specific for each enzyme was used as described previously (PCT Patent Application No. WO 00/09543) with some modifications to the serine protease assays. All enzymes were purchased from Sigma while the substrates were from Bachem.
(§2) Each assay included a 2 hr enzyme-inhibitor pre-incubation at room temperature followed by addition of substrate and hydrolysis to ˜30% conversion as measured on a Spectramax Pro microplate reader. Compound concentrations varied from 100 to 0.4 micromolar (“μM”) depending on their potency. […]
(§3) The percentage of inhibition was calculated using the formula: [1−((UVinh−UVblank)/(UVctl−UVblank))]×100 […]

[2] = molecular target: T2, human liver cathepsin B (Homo sapiens, UniProt P07858); test: Specificity assay, cathepsin B; assay type: biochemical; conditions: read-out: Cathepsin B activity in the specificity assays (IC50)
T2 construct: purchased Sigma; host or cells: human liver (by the enzyme's name)
Procedure: as §1, §2, §3

`CC(C)(C)OC(=O)N[C@H]1CCCCC/C=C\[C@@H]2C[C@@]2(C(=O)NS(C)(=O)=O)NC(=O)[C@@H]2C[C@@H](Oc3nccc4ccccc34)CN2C1=O` [Compound 2, [18-(Isoquinolin-1-yloxy)-4-methanesulfonylaminocarbonyl-2,15-dioxo-3,16-diaza-tricyclo[14.3.0.0^4,6]nonadec-7-en-14-yl]-carbamic acid tert-butyl ester] was tested, and the IC50 [1] was over 100 µM and the IC50 [2] was over 100 µM.
